Source: patent US4550102A, “Cephem compounds” (Fujisawa Pharmaceutical Co. Ltd., priority 1981, dated 1985)

Legend:
Test in all cases: In vitro antimicrobial activity, two-fold agar-plate dilution method
Assay type in all cases: cell-based
K. pneumoniae 20 = conditions: Klebsiella pneumoniae, heart infusion agar, 37° C., 20 hours, approximately 10^8 viable cells per ml, read-out: MIC (minimal inhibitory concentration)
Procedure: (§1) Test: In vitro Antimicrobial Activity
(§2) In vitro Antimicrobial activity was determined by the two-fold agar-plate dilution method as described below.
(§3) One loopful of an overnight culture of each test strain in Tripticase-soy broth (approximately 10^8 viable cells per ml) was streaked on heart infusion agar (HI-agar) containing graded concentrations of an antimicrobial agent, and the minimal inhibitory concentration (MIC) was expressed in term of μg/ml after incubation at 37° C. for 20 hours.

E. coli 31 = conditions: Escherichia coli, heart infusion agar, 37° C., 20 hours, approximately 10^8 viable cells per ml, read-out: MIC (minimal inhibitory concentration)
Procedure: as §1, §2, §3

E. coli NIHJ JC - 2 = conditions: Escherichia coli, heart infusion agar, 37° C., 20 hours, approximately 10^8 viable cells per ml, read-out: MIC (minimal inhibitory concentration)
Procedure: as §1, §2, §3

Measured: MIC

CO/N=C(\C(=O)NC1C(=O)N2C(C(=O)[O-])=C(C[n+]3cccc(N)c3)CSC12)c1csc(N)n1 (stereo not drawn) [Compound A, 7-[2-Methoxyimino-2-(2-aminothiazol-4-yl)acetamido]-3-(3-amino-1-pyridiniomethyl)-3-cephem-4-carboxylate (syn isomer)]
< 0.025 µg/mL: all assays above
